Test results: patent US5686109A, “Antipyretic analgesic composition” (priority 1993, dated 1997)

Tested on: SD strain rats (pain threshold of right hind leg)
Assay: Pain Removing Effect (Randall-Selitto method, heat edema)
Assay type: in vivo, rat
Conditions: 2 h after administration, mean ± standard error, n=10 rats
Protocol: Test substances and doses:
IPA and IBP were respectively suspended in a 0.5% aqueous solution of methylcellulose (MC) to a concentration of 8 mg/ml. The test suspensions for groups 2 and 3 were prepared by mixing the IPA suspension and IBP suspension together in a proportion of 3:1 (group 2) or 1:3 (group 3). The doses used are shown below. Each suspension was orally administered at a volumetric dose of 5 ml/kg.
Group 1: IPA 40 mg/kg+IBP 0 mg/kg
Group 2: IPA 30 mg/kg+IBP 10 mg/kg
Group 3: IPA 10 mg/kg+IBP 30 mg/kg
Group 4: IPA 0 mg/kg +IBP 40 mg/kg
Six-week-old male SD strain rats (Nippon SLC) fasted 24 hours before experiment were used in groups of 10. They were grouped such that the four groups were uniform in mean body weight.
First, the pain threshold value before thermal stimulation was measured (0 hour value). Then, heat edema was caused on the right hind leg of the rat by immersing said leg in hot water (54° C.) just to the fibular ankle (boundary showing sudden change in hair density) for 12 seconds. Two hours later, the pain threshold of the right hind leg was measured (2 hours value), immediately followed by test substance administration. After the lapse of two further hours, the pain threshold of the right hind leg was measured (4 hours value).
The percent pain removal was calculated by the following formula: [formula]

SMILES | Pain removal (%) (IPA 0 mg/kg + IBP 40 mg/kg PO) | Pain removal (%) (IPA 40 mg/kg PO + IBP 0 mg/kg)
CC(C)Cc1ccc(C(C)C(=O)O)cc1 (centres unmarked) [IBP, 2-(4-isobutylphenyl)propionic acid] | 32.3 ± 7.5% | 
Cc1c(C(C)C)c(=O)n(-c2ccccc2)n1C [IPA, 4-isopropyl-2,3-dimethyl-1-phenyl-3-pyrazolin-5-one] |  | 25.8 ± 15.9%
